Reference: patent US11535611B2, “Pyrazolo[3,4-B]pyridines and imidazo[1,5-B]pyridazines as PDE1 inhibitors” (H. Lundbeck A/S, priority 2017, dated 2022)
pIC50: −log10 of the molar value.

Key:
Format in all cases: biochemical
PDE1A = PDE1A (Homo sapiens (Human), UniProt P54750); experiment: PDE1 inhibition assay, PDE1A; settings: for pIC50: 15 nM tritium labelled cAMP, 1 hr at room temperature, SPA beads; for inhibition at 10 µM: @ 10 μM compound
Protocol: (§1) PDE1A, PDE1B and PDE1C assays were performed as follows: the assays were performed in 60 μL samples containing a fixed amount of the PDE1 enzyme (sufficient to convert 20-25% of the cyclic nucleotide substrate), a buffer (50 mM HEPES (4-(2-hydroxyethyl)-1-piperazineethanesulfonic acid) pH 7.6; 10 mM MgCl2; 0.02% Tween20), 0.1 mg/ml BSA (bovine serum albumin), 15 nM tritium labelled cAMP and varying amounts of inhibitors. Reactions were initiated by addition of the cyclic nucleotide substrate, and reactions were allowed to proceed for 1 hr at room temperature before being terminated through mixing with 20 μL (0.2 mg) yttrium silicate SPA beads (PerkinElmer). The beads were allowed to settle for 1 hour in the dark before the plates were counted in a Wallac 1450 Microbeta counter. The measured signals were converted to activity relative to an uninhibited control (100%) and IC50 values were calculated using XIFit (model 205, IDBS).

PDE1B = PDE1B (Homo sapiens (Human), UniProt Q01064); experiment: PDE1 inhibition assay, PDE1B; settings: for pIC50: 15 nM tritium labelled cAMP, 1 hr at room temperature, SPA beads, read-out: PDE1 B, IC50
Protocol: as §1

PDE1C = PDE1C (Homo sapiens (Human), UniProt Q14123); experiment: PDE1 inhibition assay, PDE1C; settings: for inhibition at 10 µM: @ 10 μM compound, read-out: PDE1 C, % inhibition @ 10 μM; for pIC50: 15 nM tritium labelled cAMP, 1 hr at room temperature, SPA beads, read-out: PDE1 C, IC50
Protocol: as §1

Chain of PDE1A (P54750 whole entry): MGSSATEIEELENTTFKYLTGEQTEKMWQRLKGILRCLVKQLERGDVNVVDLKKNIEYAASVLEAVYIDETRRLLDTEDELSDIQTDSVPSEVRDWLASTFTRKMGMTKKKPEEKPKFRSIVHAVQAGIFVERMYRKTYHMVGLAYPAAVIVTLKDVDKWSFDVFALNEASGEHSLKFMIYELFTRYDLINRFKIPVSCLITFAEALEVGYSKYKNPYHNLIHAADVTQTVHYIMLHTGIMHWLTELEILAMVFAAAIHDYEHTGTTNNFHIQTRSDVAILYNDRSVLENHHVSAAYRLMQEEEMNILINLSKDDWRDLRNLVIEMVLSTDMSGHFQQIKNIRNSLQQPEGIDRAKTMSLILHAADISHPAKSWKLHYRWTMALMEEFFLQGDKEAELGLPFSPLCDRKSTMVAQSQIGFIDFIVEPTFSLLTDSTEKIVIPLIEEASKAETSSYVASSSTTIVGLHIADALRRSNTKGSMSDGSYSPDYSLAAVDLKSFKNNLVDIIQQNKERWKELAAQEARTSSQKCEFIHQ
Chain of PDE1C (Q14123 whole entry): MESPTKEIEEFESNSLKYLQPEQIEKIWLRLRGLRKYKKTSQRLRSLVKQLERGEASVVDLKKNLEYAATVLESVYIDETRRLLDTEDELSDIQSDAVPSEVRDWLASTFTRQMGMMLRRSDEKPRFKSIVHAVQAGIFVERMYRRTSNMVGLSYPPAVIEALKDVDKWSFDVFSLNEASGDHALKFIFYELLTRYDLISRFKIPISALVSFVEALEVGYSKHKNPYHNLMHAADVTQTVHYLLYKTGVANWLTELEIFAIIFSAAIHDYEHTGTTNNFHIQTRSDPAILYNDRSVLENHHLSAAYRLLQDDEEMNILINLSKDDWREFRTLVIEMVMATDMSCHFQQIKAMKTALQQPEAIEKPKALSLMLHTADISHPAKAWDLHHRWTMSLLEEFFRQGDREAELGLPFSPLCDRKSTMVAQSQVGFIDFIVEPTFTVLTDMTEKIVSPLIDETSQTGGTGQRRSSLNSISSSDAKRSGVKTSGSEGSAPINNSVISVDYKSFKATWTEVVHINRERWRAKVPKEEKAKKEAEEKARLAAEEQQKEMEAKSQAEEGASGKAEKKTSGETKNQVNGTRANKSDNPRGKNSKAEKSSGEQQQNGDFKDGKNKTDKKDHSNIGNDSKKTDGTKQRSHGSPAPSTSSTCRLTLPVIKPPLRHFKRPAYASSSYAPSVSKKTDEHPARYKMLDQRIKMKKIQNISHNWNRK
Chain of PDE1B (Q01064 whole entry): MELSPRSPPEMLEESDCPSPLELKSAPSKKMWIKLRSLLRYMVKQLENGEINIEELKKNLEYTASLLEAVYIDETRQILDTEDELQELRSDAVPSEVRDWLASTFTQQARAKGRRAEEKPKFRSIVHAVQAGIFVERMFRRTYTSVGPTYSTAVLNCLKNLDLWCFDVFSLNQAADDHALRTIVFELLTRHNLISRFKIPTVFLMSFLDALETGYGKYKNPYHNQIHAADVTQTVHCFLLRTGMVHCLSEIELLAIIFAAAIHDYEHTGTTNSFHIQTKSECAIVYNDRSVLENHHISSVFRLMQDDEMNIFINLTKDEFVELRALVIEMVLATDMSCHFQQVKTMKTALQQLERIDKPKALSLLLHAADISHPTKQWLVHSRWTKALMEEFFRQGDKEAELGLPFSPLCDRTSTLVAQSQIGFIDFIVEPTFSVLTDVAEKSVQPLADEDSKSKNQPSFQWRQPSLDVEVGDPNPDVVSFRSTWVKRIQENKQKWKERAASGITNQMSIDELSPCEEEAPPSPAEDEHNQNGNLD

Row | SMILES | pIC50 (PDE1A) | pIC50 (PDE1B) | inhibition at 10 µM (PDE1C) | inhibition at 10 µM (PDE1A) | pIC50 (PDE1C) | inhibition at 10 µM (PDE1B; @ 10 μM compound, read-out: PDE1 B, % inhibition @ 10 μM)
1 | CCCn1ncc2nc(-c3cccnc3OCC)cc(N3CCCC3)c21 [Example 18, 5-(2-ethoxy-3-pyridyl)-1-propyl-7-pyrrolidin-1-yl-pyrazolo[4,3-b]pyridine] | 6.20 | 6.47 | 64% |  |  | 
2 | CC(C)n1ncc2nc(-c3cccnc3)cc(N[C@@H]3CCOC3)c21 [Example 25, 1-isopropyl-5-(3-pyridyl)-N-[(3R)-tetrahydrofuran-3-yl]pyrazolo[4,3-b]pyridin-7-amine] | 5.67 | 6.19 | 65% |  |  | 
3 | CC(C)n1ncc2nc(-c3cncnc3)cc(N[C@@H]3CCOC3)c21 [Example 26, 1-isopropyl-5-pyrimidin-5-yl-N-[(3R)-tetrahydrofuran-3-yl]pyrazolo[4,3-b]pyridin-7-amine] |  | 5.44 | 70% | 54% |  | 
4 | CC(C)n1ncc2nc(-c3ccccc3)cc(N[C@@H]3CCOC3)c21 [Example 27, 1-isopropyl-5-phenyl-N-[(3R)-tetrahydrofuran-3-yl]pyrazolo[4,3-b]pyridin-7-amine] | 5.70 | 6.16 |  |  | 5.45 | 
5 | COc1ncccc1-c1cc(N[C@@H]2CCOC2)c2c(cnn2C(C)C)n1 [Example 28, 1-isopropyl-5-(2-methoxy-3-pyridyl)-N-[(3R)-tetrahydrofuran-3-yl]pyrazolo[4,3-b]pyridin-7-amine] | 6.27 | 6.91 |  |  | 5.97 | 
6 | COc1nc(C)ccc1-c1cc(N[C@@H]2CCOC2)c2c(cnn2C(C)C)n1 [Example 29, 1-isopropyl-5-(2-methoxy-6-methyl-3-pyridyl)-N-[(3R)-tetrahydrofuran-3-yl]pyrazolo[4,3-b]pyridin-7-amine] |  | 5.77 | 68% | 31% |  | 
7 | COc1cnccc1-c1cc(N[C@@H]2CCOC2)c2c(cnn2C(C)C)n1 [Example 30, 1-isopropyl-5-(3-methoxy-4-pyridyl)-N-[(3R)-tetrahydrofuran-3-yl]pyrazolo[4,3-b]pyridin-7-amine] | 5.81 | 6.63 |  |  | 5.59 | 
8 | COc1ccncc1-c1cc(N[C@@H]2CCOC2)c2c(cnn2C(C)C)n1 [Example 31, 1-isopropyl-5-(4-methoxy-3-pyridyl)-N-[(3R)-tetrahydrofuran-3-yl]pyrazolo[4,3-b]pyridin-7-amine] |  | 5.91 | 76% | 63% |  | 
9 | CC(C)n1ncc2nc(-c3cccc4c3OCO4)cc(N[C@@H]3CCOC3)c21 [Example 32, 5-(1,3-benzodioxol-4-yl)-1-isopropyl-N-[(3R)-tetrahydrofuran-3-yl]pyrazolo[4,3-b]pyridin-7-amine] | 5.89 | 6.55 |  |  | 5.92 | 
10 | CCOc1ccc(-c2cc(N[C@@H]3CCOC3)c3c(cnn3C(C)C)n2)cc1 [Example 33, 5-(4-ethoxyphenyl)-1-isopropyl-N-[(3R)-tetrahydrofuran-3-yl]pyrazolo[4,3-b]pyridin-7-amine] |  |  | 24% | 20% |  | 46%
11 | CCOc1nccc(C)c1-c1cc(N[C@@H]2CCOC2)c2c(cnn2C(C)C)n1 [Example 34, 5-(2-ethoxy-4-methyl-3-pyridyl)-1-isopropyl-N-[(3R)-tetrahydrofuran-3-yl]pyrazolo[4,3-b]pyridin-7-amine] | 6.42 | 6.80 |  |  | 6.24 | 
12 | CC(C)n1ncc2nc(-c3cnn4ccccc34)cc(N[C@@H]3CCOC3)c21 [Example 35, 1-isopropyl-5-pyrazolo[1,5-a]pyridin-3-yl-N-[(3R)-tetrahydrofuran-3-yl]pyrazolo[4,3-b]pyridin-7-amine] | 5.79 | 6.22 |  |  | 5.67 | 
13 | CC(C)n1ncc2nc(-c3cccnc3OC(C)(C)C)cc(N[C@@H]3CCOC3)c21 [Example 36, 5-(2-tert-butoxy-3-pyridyl)-1-isopropyl-N-[(3R)-tetrahydrofuran-3-yl]pyrazolo[4,3-b]pyridin-7-amine] | 6.59 | 7.04 |  |  | 5.49 | 
14 | COc1cccc(Cc2cc(N[C@@H]3CCOC3)c3c(cnn3C(C)C)n2)c1 [Example 37, 1-isopropyl-5-[(3-methoxyphenyl)methyl]-N-[(3R)-tetrahydrofuran-3-yl]pyrazolo[4,3-b]pyridin-7-amine] |  | 5.87 |  | 60% | 5.78 | 
15 | COc1cc(-c2cc(N[C@@H]3CCOC3)c3c(cnn3C(C)C)n2)c(OC)cn1 [Example 38, 5-(2,5-dimethoxy-4-pyridyl)-1-isopropyl-N-[(3R)-tetrahydrofuran-3-yl]pyrazolo[4,3-b]pyridin-7-amine] | 5.94 | 6.51 |  |  | 6.25 | 
16 | Cc1cccnc1-c1cc(N[C@@H]2CCOC2)c2c(cnn2C(C)C)n1 [Example 39, 1-isopropyl-5-(3-methyl-2-pyridyl)-N-[(3R)-tetrahydrofuran-3-yl]pyrazolo[4,3-b]pyridin-7-amine] |  | 5.72 | 59% | 61% |  | 
17 | COc1cccnc1-c1cc(N[C@@H]2CCOC2)c2c(cnn2C(C)C)n1 [Example 40, 1-isopropyl-5-(3-methoxy-2-pyridyl)-N-[(3R)-tetrahydrofuran-3-yl]pyrazolo[4,3-b]pyridin-7-amine] |  | 5.67 | 26% | 81% |  | 
18 | CC(C)n1ncc2nc(-c3ccccc3C#N)cc(N[C@@H]3CCOC3)c21 [Example 41, 2-[1-isopropyl-7-[[(3R)-tetrahydrofuran-3-yl]amino]pyrazolo[4,3-b]pyridin-5-yl]benzonitrile] | 6.02 | 6.61 |  |  | 5.77 | 
19 | CC(C)n1ncc2nc(-c3cccc4c3OCCO4)cc(N[C@@H]3CCOC3)c21 [Example 42, 5-(2,3-dihydro-1,4-benzodioxin-5-yl)-1-isopropyl-N-[(3R)-tetrahydrofuran-3-yl]pyrazolo[4,3-b]pyridin-7-amine] | 5.80 | 6.26 | 68% |  |  | 
20 | CC(C)n1ncc2nc(Cc3ccc(F)cc3)cc(N[C@@H]3CCOC3)c21 [Example 43, 5-[(4-fluorophenyl)methyl]-1-isopropyl-N-[(3R)-tetrahydrofuran-3-yl]pyrazolo[4,3-b]pyridin-7-amine] | 5.54 | 5.91 |  |  | 6.21 | 
21 | CC(C)n1ncc2nc(-c3cncc(C#N)c3)cc(N[C@@H]3CCOC3)c21 [Example 44, 5-[1-isopropyl-7-[[(3R)-tetrahydrofuran-3-yl]amino]pyrazolo[4,3-b]pyridin-5-yl]pyridine-3-carbonitrile] |  | 5.40 | 47% | 33% |  | 
22 | COCc1cccc(-c2cc(N[C@@H]3CCOC3)c3c(cnn3C(C)C)n2)c1 [Example 45, 1-isopropyl-5-[3-(methoxymethyl)phenyl]-N-[(3R)-tetrahydrofuran-3-yl]pyrazolo[4,3-b]pyridin-7-amine] | 5.61 | 6.47 | 72% |  |  | 
23 | COc1cncc(-c2cc(N[C@@H]3CCOC3)c3c(cnn3C(C)C)n2)c1 [Example 47, 1-isopropyl-5-(5-methoxy-3-pyridyl)-N-[(3R)-tetrahydrofuran-3-yl]pyrazolo[4,3-b]pyridin-7-amine] | 5.82 | 6.22 |  |  | 5.81 | 
24 | CC(C)n1ncc2nc(-c3cccc(OC(F)F)c3)cc(N[C@@H]3CCOC3)c21 [Example 48, 5-[3-(difluoromethoxy)phenyl]-1-isopropyl-N-[(3R)-tetrahydrofuran-3-yl]pyrazolo[4,3-b]pyridin-7-amine] | 5.96 | 6.42 |  |  | 5.76 | 
25 | COc1ncncc1-c1cc(N[C@@H]2CCOC2)c2c(cnn2C(C)C)n1 [Example 49, 1-isopropyl-5-(4-methoxypyrimidin-5-yl)-N-[(3R)-tetrahydrofuran-3-yl]pyrazolo[4,3-b]pyridin-7-amine] |  | 5.57 |  | 43% | 5.73 | 
26 | COc1cnc(C)c(-c2cc(N[C@@H]3CCOC3)c3c(cnn3C(C)C)n2)c1 [Example 51, 1-isopropyl-5-(5-methoxy-2-methyl-3-pyridyl)-N-[(3R)-tetrahydrofuran-3-yl]pyrazolo[4,3-b]pyridin-7-amine] |  | 5.49 |  | 20% | 5.41 | 
27 | COc1ncc(C)cc1-c1cc(N[C@@H]2CCOC2)c2c(cnn2C(C)C)n1 [Example 52, 1-isopropyl-5-(2-methoxy-5-methyl-3-pyridyl)-N-[(3R)-tetrahydrofuran-3-yl]pyrazolo[4,3-b]pyridin-7-amine] |  | 5.88 |  | 56% | 5.74 | 
28 | CCOc1ccccc1-c1cc(N[C@@H]2CCOC2)c2c(cnn2C(C)C)n1 [Example 53, 5-(2-ethoxyphenyl)-1-isopropyl-N-[(3R)-tetrahydrofuran-3-yl]pyrazolo[4,3-b]pyridin-7-amine] |  | 6.52 | 61% | 73% |  | 
